Source: US5039665A, “Use of fructose-1,6-diphosphate for treating myocardial infarction” (priority 1990, dated 1991)

Legend:
heart preparation = conditions: infusion of Locke's solution plus sugar; cited from earlier work
[1] = tested on: dogs with acute regional myocardial ischemia; test: acute regional myocardial ischemia in dogs (coronary artery occlusion); type: in vivo, dog; conditions: FIG. 3; ischemic and normally perfused myocardium
dog WBC = test: carbohydrate metabolism of dog white blood cells in vitro; type: cell-based
Experimental: The tests were also conducted to investigate the effect of FDP on white blood cells (WBC) on metabolism in vitro. […] It was experimentally assessed whether FDP can stimulate the carbohydrate metabolism of these cells at rest. A similar phenomenon observed for normal human erythrocytes, sickle cells and dog erythrocytes. From healthy humans and dogs, the white blood cells were separated and incubated at 37° Celsius for various periods of time with FDP, glucose and normal saline. At the end of incubation, ATP and intermediates of the glycolytic pathway were assessed. […] The pyruvic acid concentration in dog WBC incubated with FDP was 10 times greater than those incubated in glucose while those for the human WBC, this difference was of much lesser degree (X2). The dihydroxyacetone (DHA) in the human and canine WBC was 5 to 10 times greater in the FDP incubated than in the glucose ones.

rabbit ileum = test: force of contraction of isolated rabbit ileum; conditions: added to perfusate
Source text: (§1) To allow for a broader and more complete interpretation of the results, a small paragraph will be devoted to the ability of FDP to cross the cellular membranes.

[2] = FDP distribution after intracardiac administration in rat; type: in vivo; conditions: 10 min after administration
Source text: as §1

[3] = plasma lactic acid after intravenous FDP in dogs; type: in vivo, dog
Source text: as §1

[4] = tissue ATP, lactate, FDP and trioses after IV FDP; type: in vivo; conditions: IV administration
Source text: as §1

acute lethality in dogs = conditions: dog, in vivo; administered 500 mg/min in dogs; approximately
Source text: From an energetic point of view the advantage of using FDP as the initial substrate is that the net yield of the anaerobic metabolism of one mole of glucose is 2 ATP, while if one mole of FDP is metabolized in the same conditions it will produce 4 ATP because there is no phosphorylation of glucose and fructose-6-phosphate, reactions which require utilization of ATP. On the other hand, while doubling the quantity of ATP produced, lactate production remains the same as though one mole of glucose had been metabolized. It is obvious that in order to obtain results in the direction of making usuable energy from FDP, it is necessary to administer a large quantity. (The LD50 of FDP when administered 500 mg/min in dogs is approximately 5.8-6 g/kg.)

[5] = tested on: experimental animals and man; test: antishock activity in experimental animals and in man; conditions: in vivo
[6] = tested on: dogs anesthetized with Surital; test: analeptic effect of intra-carotid administration on Surital (thiamylal) anesthesia in dogs; type: in vivo, dog; conditions: systemic administration
[7] = 5 g of FDP IV over 10 min, at one hour

O=C[C@H](O)[C@@H](O)[C@H](O)[C@H](O)CO [glucose, reference compound]
amplitude and frequency of heart beats, lactic acid, pH and potassium during recovery (heart preparation): no significant difference

O=C(COP(=O)(O)O)[C@@H](O)[C@H](O)[C@H](O)COP(=O)(O)O [FDP, fructose-1,6-diphosphate]
ATP and CP content in the myocardium [1]: increase of ATP and CP in ischemic myocardium, but also in the normally perfused heart muscle | tissue lactic acid concentration [1]: The same phenomenon was observed for the tissue lactic acid concentration | effect on carbohydrate metabolism (dog WBC): profound stimulating effect on the carbohydrate metabolism | concentration dependence of ATP production (dog WBC; 5 to 50 mg/ml FDP, no AMP or ADP): independent of the concentration (from 5 to 50 mg/ml), but rather a function of the incubation time | concentration dependence of ATP increase (dog WBC; AMP or ADP added): the increase of ATP becomes a function of the FDP concentration | pyruvic acid concentration, FDP versus glucose (dog WBC; dog WBC): 10 times | force of contraction (rabbit ileum): increases the force of contraction | concentration of FDP in the liver versus plasma [2]: five | plasma lactic acid [3, 7]: 16.45±2.16 mg % | plasma lactic acid increase [3, 7]: 21/2 | plasma lactic acid ([3]; before FDP (baseline)): 6.13±1.7 mg % | ATP, lactate, and FDP in tissues [4]: increase of ATP, lactate, and FDP in all tissues that we have studied | trioses in the Embden-Meyerhof pathway [4]: increases in the trioses | LD50 (acute lethality in dogs): 5800 to 6000 mg/kg | antishock activity [5]: profound antishock activity in experimental animals and in man | analeptic effect [6]: The same analeptic effect, but to a much lesser degree
